According to US10947296B2, “Fusion protein Slit2D2(C386S)-HSA and use thereof in treatment of fibrotic diseases” (SUZHOU THINKING POWER BIOTECHNOLOGY CO., LTD., priority 2016, dated 2021):

B1: Slit2N: Protein having a molecular weight of about 120 kDa at the N-terminus of the Slit2 protein (protein)
chain: QCSCSGSTVDCHGLALRSVPRNIPRNTERLDLNGNNITRITKTDFAGLRHLRVLQLMENKISTIERGAFQDLKELERLRLNRNHLQLFPELLFLGTAKLYRLDLSENQIQAIPRKAFRGAVDIKNLQLDYNQISCIEDGAFRALRDLEVLTLNNNNITRLSVASFNHMPKLRTFRLHSNNLYCDCHLAWLSDWLRQRPRVGLYTQCMGPSHLRGHNVAEVQKREFVCSGHQSFMAPSCSVLHCPAACTCSNNIVDCRGKGLTEIPTNLPETITEIRLEQNTIKVIPPGAFSPYKKLRRIDLSNNQISELAPDAFQGLRSLNSLVLYGNKITELPKSLFEGLFSLQLLLLNANKINCLRVDAFQDLHNLNLLSLYDNKLQTIAKGTFSPLRAIQTMHLAQNPFICDCHLKWLADYLHTNPIETSGARCTSPRRLANKRIGQIKSKKFRCSAKEQYFIPGTEDYRSKLSGDCFADLACPEKCRCEGTTVDCSNQKLNKIPEHIPQYTAELRLNNNEFTVLEATGIFKKLPQLRKINFSNNKITDIEEGAFEGASGVNEILLTSNRLENVQHKMFKGLESLKTLMLRSNRITCVGNDSFIGLSSVRLLSLYDNQITTVAPGAFDTLHSLSTLNLLANPFNCNCYLAWLGEWLRKKRIVTGNPRCQKPYFLKEIPIQDVAIQDFTCDDGNDDNSCSPLSRCPTECTCLDTVVRCSNKGLKVLPKGIPRDVTELYLDGNQFTLVPKELSNYKHLTLIDLSNNRISTLSNQSFSNMTQLLTLILSYNRLRCIPPRTFDGLKSLRLLSLHGNDISVVPEGAFNDLSALSHLAIGANPLYCDCNMQWLSDWVKSEYKEPGIARCAGPGEMADKLLLTTPSKKFTCQGPVDVNILAKCNPCLSNPCKNDGTCNSDPVDFYRCTCPYGFKGQDCDVPIHACISNPCKHGGTCHLKEGEEDGFWCICADGFEGENCEVNVDDCEDNDCENNSTCVDGINNYTCLCPPEYTGELCEEKLDFCAQDLNPCQHDSKCILTPKGFKCDCTPGYVGEHCDIDFDDCQDNKCKNGAHCTDAVNGYTCICPEGYSGLFCEFSPPMVLPR

Key:
pulmonary fibrosis model = assay: Efficacy on bleomycin-induced pulmonary fibrosis model; format: in vivo; design: body weight of the animals (Mean ± SEM) / Weight of the left lung (Mean ± SEM) / Volume of the left lung (Mean ± SEM): unit not given here; details: for body weight of the animals (Mean ± SEM): PFD 50mpk BID PO
Protocol: Animals were anesthetized by inhaling isoflurane. After confirmation of anesthesia, the animals were sterilized, then the neck skin was cut, the muscles were bluntly separated to expose the trachea, and bleomycin (dosage: 3 mg/kg, volume: 1.0 mL/kg) was directly injected between the tracheal rings. After the operation, the animals were placed in a 37° C. electric blanket to keep warm until the animals were completely awakened. After confirming that they were able to eat and drink freely, the animals were returned to the cage for normal feeding.
In this experiment, there were four groups, i.e., model group (experimental group-1, […]), PFD group (experimental group-2, n=6), Slit2D2(C386S)-HSA-1 mg/kg (experimental group-3, n=6), and Slit2D2(C386S)-HSA-5 mg/kg (experimental group-4, n=6).
In this experiment, the positive control drug (PFD) was given to rats by gavage twice a day, which was started on the day of modeling, and administered continuously for 14 days. The test compound (Slit2D2(C386S)-HSA) was given intravenously once every other day, which was started on the day of modeling, and a total of seven doses were administered (as shown in table 6).
Physiological observation of the experimental animals: changes in body weight of the animals were measured (body weight was measured once a day before administration); and the death rate of animals during the test period was monitored.
Animals were euthanized 24 hours after the last administration on the 14th day of modeling. After confirming the death of the animals, the left lung was fixed by intrapulmonary infusion of formalin, and the volume and weight of the left lung after perfusion were measured for relevant examination of the pulmonary pathology.
General pathological examination: After the perfusion with an equal amount of formalin in the left lung, the wet weight of left lung after perfusion was weighed/recorded with a micro-balance; and the volume of left lung after perfusion was measured and recorded using a micro-measuring cup.
Pathological examination of lung tissue: The whole lung was dehydrated. Lung paraffin sections were made with paraffin blocks. […] HE staining and Masson Trichrome staining were performed according to pathological staining SOP, and whole section scanning was performed using a Digital Pathscope slice scanner. Pathological analysis and scoring of changes in damage and inflammation of terminal bronchioles and accompanying small pulmonary artery at the periphery of the lesions (as shown in Tables 7 and 8 and FIG. 7) were performed using the HE-stained sections. Lesion area calculation, lesion pathology analysis and scoring were performed with the Masson Trichrome-stained sections (as shown in Table 9 and FIG. 8).
The mean±sd or mean±sem was calculated using the graphpad prism software, and the significant difference test was performed using t-test, one-way ANOVA and two-way ANOVA test. A significant difference between the two groups was considered at p<0.05.

Robo1 protein = target: T1, Robo1 protein (Homo sapiens, UniProt Q9Y6N7); assay: Affinity of the fusion protein to receptor Robo1 determined by SPR; format: binding; details: Robo1 bound to CM5 chip
T1 construct: purchased ORIGEN TP327713
T1 sequence (Q9Y6N7 26-1651): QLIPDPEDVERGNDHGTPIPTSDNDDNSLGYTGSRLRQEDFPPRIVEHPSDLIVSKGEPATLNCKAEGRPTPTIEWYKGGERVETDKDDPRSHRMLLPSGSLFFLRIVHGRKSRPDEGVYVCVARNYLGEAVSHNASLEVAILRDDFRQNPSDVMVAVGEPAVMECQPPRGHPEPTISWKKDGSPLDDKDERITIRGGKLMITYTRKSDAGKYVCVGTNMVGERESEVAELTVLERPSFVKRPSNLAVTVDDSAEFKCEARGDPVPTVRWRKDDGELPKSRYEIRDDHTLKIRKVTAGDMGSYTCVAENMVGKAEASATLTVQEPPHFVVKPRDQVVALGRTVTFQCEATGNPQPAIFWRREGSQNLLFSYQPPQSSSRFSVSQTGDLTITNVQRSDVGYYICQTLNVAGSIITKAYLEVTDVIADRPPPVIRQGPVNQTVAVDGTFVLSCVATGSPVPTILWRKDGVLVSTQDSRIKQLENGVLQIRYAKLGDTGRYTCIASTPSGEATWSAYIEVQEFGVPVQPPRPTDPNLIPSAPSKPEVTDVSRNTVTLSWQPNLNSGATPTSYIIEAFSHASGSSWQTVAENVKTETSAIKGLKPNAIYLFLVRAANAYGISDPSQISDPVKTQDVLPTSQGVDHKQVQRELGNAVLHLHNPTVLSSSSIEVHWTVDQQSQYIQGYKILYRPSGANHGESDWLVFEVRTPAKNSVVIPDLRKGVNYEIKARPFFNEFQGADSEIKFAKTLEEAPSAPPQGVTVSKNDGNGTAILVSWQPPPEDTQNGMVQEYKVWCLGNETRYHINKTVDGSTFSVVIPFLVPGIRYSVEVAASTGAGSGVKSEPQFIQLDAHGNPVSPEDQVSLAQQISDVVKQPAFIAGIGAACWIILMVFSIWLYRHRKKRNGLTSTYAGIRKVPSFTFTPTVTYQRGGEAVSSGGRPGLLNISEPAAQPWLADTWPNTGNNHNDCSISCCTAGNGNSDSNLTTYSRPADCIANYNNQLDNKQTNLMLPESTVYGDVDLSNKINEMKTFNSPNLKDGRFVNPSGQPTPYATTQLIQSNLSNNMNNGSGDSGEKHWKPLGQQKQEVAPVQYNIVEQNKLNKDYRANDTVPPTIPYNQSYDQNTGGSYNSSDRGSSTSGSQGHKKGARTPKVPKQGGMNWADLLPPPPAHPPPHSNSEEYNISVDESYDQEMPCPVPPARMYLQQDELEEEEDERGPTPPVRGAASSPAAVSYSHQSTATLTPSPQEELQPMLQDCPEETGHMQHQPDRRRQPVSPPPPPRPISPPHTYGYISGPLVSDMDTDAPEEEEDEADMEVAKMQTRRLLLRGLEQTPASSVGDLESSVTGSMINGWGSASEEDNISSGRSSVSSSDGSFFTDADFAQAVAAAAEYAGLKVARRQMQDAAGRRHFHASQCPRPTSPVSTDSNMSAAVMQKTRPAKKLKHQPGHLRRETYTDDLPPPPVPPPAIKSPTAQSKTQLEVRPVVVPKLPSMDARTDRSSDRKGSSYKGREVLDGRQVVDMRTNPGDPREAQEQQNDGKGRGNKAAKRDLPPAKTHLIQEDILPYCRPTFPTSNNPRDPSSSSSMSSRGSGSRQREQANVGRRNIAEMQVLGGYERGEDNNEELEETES
Protocol: The affinity constant between the protein and Robo1 protein was detected by SPR (Surface Plasmon resonance BIAcore 200) method. The Robo1 protein (ORIGEN, Art. No.: TP327713) was bound to a CM5 chip, and the interaction between the fusion protein Slit2D2(C386S)-HSA (prepared in Example 1), Slit2D2-HSA (as disclosed in Patent Application PCT/CN2015/092079), and the receptor protein Robo1 were analyzed. Kinetic measurements were performed according to the method referred by Canziani et al. (2004, Anal. Biochem. 325: 301-307). Furthermore, the affinity of the Slit2N protein (Slit2N is a protein having a molecular weight of about 120 kDa at the N-terminus of the Slit2 protein) to Robo1 protein was also determined by the same method.

| Molecule | body weight of the animals (Mean ± SEM) (pulmonary fibrosis model; Day 1) | body weight of the animals (Mean ± SEM) (pulmonary fibrosis model; Day 3) | body weight of the animals (Mean ± SEM) (pulmonary fibrosis model; Day 5) | body weight of the animals (Mean ± SEM) (pulmonary fibrosis model; Day 7) | body weight of the animals (Mean ± SEM) (pulmonary fibrosis model; Day 9) | body weight of the animals (Mean ± SEM) (pulmonary fibrosis model; Day 11) | body weight of the animals (Mean ± SEM) (pulmonary fibrosis model; Day 13) | inhibition on the progression of pulmonary fibrosis (pulmonary fibrosis model; continuous administration for 14 days, 50 mg/kg PO BID) | Ka (Robo1 protein) [M⁻¹ s⁻¹] |
| --- | --- | --- | --- | --- | --- | --- | --- | --- | --- |
| Cc1ccc(=O)n(-c2ccccc2)c1 [PFD, Pirfenidone, reference compound] | 279.4 ± 2.3 | 261.8 ± 3.9 | 265.0 ± 6.4 | 282.9 ± 7.4 | 298.4 ± 8.0 | 312.6 ± 8.8 | 321.7 ± 8.3 | significant inhibition | – |
| B1 | – | – | – | – | – | – | – | – | 743600 |
